According to paper PMC6440464 (PeerJ, 2019):
Several values for one entry are separate records, joined by “and”; a condition that tells them apart may be missing. Equal values may be shown once.

Experiment: Stability of the analytes in rat plasma QC samples at different storage conditions
Format: in vitro ADME
Conditions: for Post-preparation stability (4℃ for 24 h) Measured Conc.: extracted plasma samples in auto sampler rack; for Post-preparation stability (4℃ for 24 h) Measured Conc. / Free-thaw stability (3 free-thaw cycles) Measured Conc. / Long-term stability (-80℃ for 15 d) Measured Conc. / Short-term stability (25℃ for 12 h) Measured Conc.: n=5; for Free-thaw stability, Test Conc., AV / Free-thaw stability, Test Conc. / Post-preparation stability, Test Conc., AV / Post-preparation stability, Test Conc. / Short-term stability, Test Conc., AV / Short-term stability, Test Conc. / Long-term stability, Test Conc., AV / Long-term stability, Test Conc.: plasma; for Free-thaw stability, Test Conc., AV / Free-thaw stability, Test Conc.: 3 free-thaw cycles; for Free-thaw stability, Test Conc., AV / Post-preparation stability, Test Conc., AV / Short-term stability, Test Conc., AV / Long-term stability, Test Conc., AV: AV of 5 replicates; for Free-thaw stability, Test Conc. / Post-preparation stability, Test Conc. / Short-term stability, Test Conc. / Long-term stability, Test Conc.: single replicates NO.1-NO.5, listed as Quercetin (Qr); for Post-preparation stability, Test Conc., AV / Post-preparation stability, Test Conc.: 4℃ for 24 h; for Short-term stability, Test Conc., AV / Short-term stability, Test Conc.: 25℃ for 12 h; for Long-term stability, Test Conc., AV / Long-term stability, Test Conc.: -80℃ for 15 d; for Free-thaw stability (3 free-thaw cycles) Measured Conc. / Long-term stability (-80℃ for 15 d) Measured Conc. / Short-term stability (25℃ for 12 h) Measured Conc.: rat plasma
Method: The stabilities of Qr, IQ, and QG in plasma were assessed by analyzing QC samples at different storage conditions. The stabilities of three flavonoids in plasma were studied by analyzing three concentration levels of QC samples (n = 5) at room temperature (25 °C) for 12 h, at long-term storage (−80 °C for 15 days), after three freeze (−80 °C) and thaw (room temperature) cycles, and at auto sampler rack storage (4 °C for 24 h).

[1] = high QC, nominal 8400.0 (Qr), 976.0 (IQ), 10000.0 (QG) ng/mL
[2] = low QC, nominal 65.6 (Qr), 48.8 (IQ), 100.0 (QG) ng/mL
[3] = medium QC, nominal 525.0 (Qr), 244.0 (IQ), 1000.0 (QG) ng/mL

For `O=c1c(O)c(-c2ccc(O)c(O)c2)oc2cc(O)cc(O)c12` [Qr, Quercetin], the “Post-preparation stability (4℃ for 24 h) Measured Conc.” value [1] was 7642.7 ± 675.6 ng/mL, the “Post-preparation stability (4℃ for 24 h) Measured Conc.” value [2] was 61.0 ± 4.5 ng/mL and the “Post-preparation stability (4℃ for 24 h) Measured Conc.” value was 526.3 ± 60.5 ng/mL. For the same compound, the “Free-thaw stability, Test Conc., AV” value (nominal Conc. 65.63 ng/mL) was 65.26 ng/mL, the “Free-thaw stability, Test Conc.” value (nominal Conc. 65.63 ng/mL) was 66.42 ng/mL and 58.78 ng/mL and 57.77 ng/mL and 73.55 ng/mL and 69.78 ng/mL and the “Free-thaw stability, Test Conc., AV” value (nominal Conc. 525.00 ng/mL) was 511.91 ng/mL. For the same compound, the “Free-thaw stability, Test Conc.” value (nominal Conc. 525.00 ng/mL) was 492.92 ng/mL and 484.10 ng/mL and 471.66 ng/mL and 550.36 ng/mL and 560.49 ng/mL, the “Free-thaw stability, Test Conc., AV” value (nominal Conc. 8400.00 ng/mL) was 8631.34 ng/mL and the “Free-thaw stability, Test Conc.” value (nominal Conc. 8400.00 ng/mL) was 7999.32 ng/mL and 7943.88 ng/mL and 8238.72 ng/mL and 9682.68 ng/mL and 9292.08 ng/mL. The “Post-preparation stability, Test Conc., AV” value (nominal Conc. 65.63 ng/mL) was 61.04 ng/mL, the “Post-preparation stability, Test Conc.” value (nominal Conc. 65.63 ng/mL) was 58.85 ng/mL and 54.07 ng/mL and 64.70 ng/mL and 64.32 ng/mL and 63.25 ng/mL and the “Post-preparation stability, Test Conc., AV” value (nominal Conc. 525.00 ng/mL) was 526.26 ng/mL. For the same compound, the “Post-preparation stability, Test Conc.” value (nominal Conc. 525.00 ng/mL) was 568.94 ng/mL and 459.48 ng/mL and 463.10 ng/mL and 552.93 ng/mL and 586.85 ng/mL, the “Post-preparation stability, Test Conc., AV” value (nominal Conc. 8400.00 ng/mL) was 7642.66 ng/mL and the “Post-preparation stability, Test Conc.” value (nominal Conc. 8400.00 ng/mL) was 6882.12 ng/mL and 7943.04 ng/mL and 7529.76 ng/mL and 8629.32 ng/mL and 7229.04 ng/mL. For the same compound, the “Short-term stability, Test Conc., AV” value (nominal Conc. 65.63 ng/mL) was 60.80 ng/mL, the “Short-term stability, Test Conc.” value (nominal Conc. 65.63 ng/mL) was 57.16 ng/mL and 57.07 ng/mL and 64.40 ng/mL and 62.26 ng/mL and 63.12 ng/mL and the “Short-term stability, Test Conc., AV” value (nominal Conc. 525.00 ng/mL) was 474.02 ng/mL. The “Short-term stability, Test Conc.” value (nominal Conc. 525.00 ng/mL) was 478.01 ng/mL and 472.87 ng/mL and 443.05 ng/mL and 442.10 ng/mL and 534.08 ng/mL, the “Short-term stability, Test Conc., AV” value (nominal Conc. 8400.00 ng/mL) was 7949.42 ng/mL and the “Short-term stability, Test Conc.” value (nominal Conc. 8400.00 ng/mL) was 8294.16 ng/mL and 7882.56 ng/mL and 8019.48 ng/mL and 7925.40 ng/mL and 7625.52 ng/mL. For the same compound, the “Long-term stability, Test Conc., AV” value (nominal Conc. 65.63 ng/mL) was 59.99 ng/mL, the “Long-term stability, Test Conc.” value (nominal Conc. 65.63 ng/mL) was 54.24 ng/mL and 60.01 ng/mL and 62.03 ng/mL and 66.54 ng/mL and 57.14 ng/mL and the “Long-term stability, Test Conc., AV” value (nominal Conc. 525.00 ng/mL) was 500.71 ng/mL. The “Long-term stability, Test Conc.” value (nominal Conc. 525.00 ng/mL) was 493.55 ng/mL and 501.01 ng/mL and 547.68 ng/mL and 448.04 ng/mL and 513.29 ng/mL, the “Long-term stability, Test Conc., AV” value (nominal Conc. 8400.00 ng/mL) was 7982.86 ng/mL and the “Long-term stability, Test Conc.” value (nominal Conc. 8400.00 ng/mL) was 7842.24 ng/mL and 9005.64 ng/mL and 8321.88 ng/mL and 7922.88 ng/mL and 6821.64 ng/mL. For the same compound, the “Free-thaw stability (3 free-thaw cycles) Measured Conc.” value [1] was 8631.3 ± 801.3 ng/mL, the “Long-term stability (-80℃ for 15 d) Measured Conc.” value [1] was 7982.9 ± 795.7 ng/mL and the “Short-term stability (25℃ for 12 h) Measured Conc.” value [1] was 7949.4 ± 241.7 ng/mL. For the same compound, the “Free-thaw stability (3 free-thaw cycles) Measured Conc.” value [2] was 65.3 ± 6.9 ng/mL, the “Long-term stability (-80℃ for 15 d) Measured Conc.” value [2] was 60.0 ± 4.7 ng/mL and the “Short-term stability (25℃ for 12 h) Measured Conc.” value [2] was 60.8 ± 3.5 ng/mL. For the same compound, the “Free-thaw stability (3 free-thaw cycles) Measured Conc.” value [3] was 511.9 ± 40.6 ng/mL, the “Long-term stability (-80℃ for 15 d) Measured Conc.” value [3] was 500.7 ± 36.0 ng/mL and the “Short-term stability (25℃ for 12 h) Measured Conc.” value [3] was 474.0 ± 37.4 ng/mL.
